Laboratory results reported in patent US20100172845A1, “COMPOSITIONS AND METHODS FOR TREATING MYCOBACTERIAL INFECTIONS” (BOARD OF REGENTS OF THE UNIVERSITY OF TEXAS SYSTEM, priority 2007, published 2010).
Entries after “also recorded” stand apart in the source; their conditions may differ.

Columns and labels:
[1] = mouse, in vivo
Erdman strain of MTB = test: Effect of surfactants on corded state and number of MTB in vitro (microscopy, acid-fast staining); format: cell-based, Mycobacterium tuberculosis; conditions: for bactericidal action on MTB: 1% (wt/vol.), OG 24 hr, DDM 2 hr
MTB = test: Growth of MTB in the presence of surfactant; format: cell-based, Mycobacterium tuberculosis; conditions: 0.3% surfactant
[2] = 1% (wt/vol.) surfactant, 2 hr exposure
[3] = 1% (wt/vol.) surfactant, 30 min exposure

**Q.** For CCCCCCCCCCCCO[C@@H]1O[C@H](CO)[C@@H](O[C@H]2O[C@H](CO)[C@@H](O)[C@H](O)[C@H]2O)[C@H](O)[C@H]1O [DDM, n-dodecyl-β-D-maltoside], which “body weight versus control animals” value [1] is on record?
**A.** no difference in the body weight

**Q.** What about the “histological examination of spleens and livers” value [1] of the same compound?
**A.** did not reveal any visible changes

**Q.** And the “histopathological differences of lung, liver and spleen tissues versus control” value [1]?
**A.** no identifiable histopathological differences

**Q.** What about the “leukocyte count and cytologic composition of the lavage fluid” value [1] of the same compound?
**A.** no change were found

**Q.** What about the “tolerability by the lungs” value [1] of the same compound?
**A.** well tolerated by the lungs

**Q.** What about the elimination of bacteria (Erdman strain of MTB; [2]) of the same compound?
**A.** elimination of most of the bacteria

**Q.** What about the “loss / reduction of cording of MTB” value (Erdman strain of MTB; [2]) of the same compound?
**A.** reduce cording to a similar extent of OG after 24 hr exposure; also recorded: rapid loss of cording

**Q.** And the “bactericidal action on MTB” value (Erdman strain of MTB)?
**A.** bactericidal

**Q.** For CCCCCCCCCCCCCCCC(=O)OC[C@H](COP(=O)([O-])OCC[N+](C)(C)C)OC(=O)CCCCCCCCCCCCCCC [DPPC, 1,2-dipalmitoyl-sn-3-glycerophosphoryl choline, reference compound], which “reversal of cording of corded MTB preparation” value (Erdman strain of MTB; 1% surfactant, over the time period of the study) is on record?
**A.** did not reverse cording

**Q.** Which “body weight versus control animals” value [1] does the source give for CCCCCCCCO[C@@H]1O[C@H](CO)[C@@H](O)[C@H](O)[C@H]1O [OG, n-octyl-β-D-glucoside] here?
**A.** no difference in the body weight

**Q.** What about the “histological examination of spleens and livers” value [1] of the same compound?
**A.** did not reveal any visible changes

**Q.** And the “histopathological differences of lung, liver and spleen tissues versus control” value [1]?
**A.** no identifiable histopathological differences

**Q.** And the “leukocyte count and cytologic composition of the lavage fluid” value [1]?
**A.** no change were found

**Q.** And the “tolerability by the lungs” value [1]?
**A.** well tolerated by the lungs

**Q.** What about the “number of bacteria in the background (higher power view)” value (Erdman strain of MTB; [3]) of the same compound?
**A.** significant loss in the number of bacteria in the background

**Q.** What about the “reversal of aggregation / number of cords of MTB” value (Erdman strain of MTB; [3]) of the same compound?
**A.** major reduction in the number of the cords; also recorded: rapidly reversed aggregation of MTB

**Q.** And the “decrease in the corded state of MTB” value (Erdman strain of MTB; 1% (wt/vol.) surfactant, 24 hr incubation)?
**A.** more pronounced

**Q.** What about the “bacteria eliminated (50× image)” value (Erdman strain of MTB; 1% (wt/vol.) surfactant, within 24 hours of treatment) of the same compound?
**A.** over 90%

**Q.** What about the “bactericidal action on MTB” value (Erdman strain of MTB) of the same compound?
**A.** acts as a bacteriocide; also recorded: bactericidal

**Q.** And the “growth of MTB and mycolic acid coat” value (MTB)?
**A.** will grow in the presence of 0.3% OG but are not surrounded by their extensive coat of mycolic acid
